Data as given in ChEMBL document CHEMBL3400004, “Novel fused tetrathiocines as antivirals that target the nucleocapsid zinc finger containing protein of the feline immunodeficiency virus (FIV) as a model of HIV infection” (Bioorg Med Chem Lett, 2015).

Experiments:
[1] = system: Feline immunodeficiency virus; assay: Antiviral activity against Feline immunodeficiency virus infected in cat FL-4 cells assessed as inhibition of viral replication after 7 days by quantitative RT-PCR analysis; assay type: functional, organism-based; conditions: FL-4, 168 h
[2] = Therapeutic index, ratio of CC50 for cat FL-4 cells to EC50 for Feline immunodeficiency virus infected in cat FL-4 cells; assay type: cell-based; conditions: read-out: Ratio CC50/EC50
[3] = Cytotoxicity against IL2-independent cat FL-4 cells assessed as reduction in cell viability after 7 days by MTT assay; assay type: cell-based, Felis catus; conditions: IL2-independent FL-4 cells
[4] = Cytotoxicity against cat CRFK cells assessed as cell viability at 10 uM after 24 hrs by MTT assay; assay type: cell-based, Felis catus; conditions: read-out: Activity

Compound | EC50 [1] | selectivity ratio [2] | CC50 at 168 h [3] | viability at 24 h, 10 µM [4]
c1c2c(cc3c1SSc1cc4c(cc1SS3)OCO4)OCO2 | 0.0932 µM | 62.1 | 5.79 µM | 77%
CCN(CC)c1sc(N(CC)CC)c2c1SSc1c(N(CC)CC)sc(N(CC)CC)c1SS2 | > 100 µM | 1 | > 100 µM | > 100%
Cn1c2c(c3ccccc31)SSc1c(c3ccccc3n1C)SS2 | 0.0429 µM | > 2330 | > 100 µM | > 100%
Cc1nnc(C(=O)NC(C)(C)c2nc(C(=O)NCc3ccc(F)cc3)c(O)c(=O)n2C)o1 [RALTEGRAVIR] | – | > 10000 | > 100 µM | > 100%
Cc1cn([C@H]2C[C@H](N=[N+]=[N-])[C@@H](CO)O2)c(=O)[nH]c1=O [ZIDOVUDINE] | – | > 18.8 | > 100 µM | > 100%

More lines, main results first:

EC50 [1] | Compound | selectivity ratio [2] | CC50 at 168 h [3] | viability at 24 h, 10 µM [4]
0.0309 µM | COc1cc2c(cc1OC)SSc1cc(OC)c(OC)cc1SS2 | > 3240 | > 100 µM | 75.3%
0.0689 µM | c1c2c(cc3c1SSc1cc4c(cc1SS3)OCCO4)OCCO2 | > 1450 | > 100 µM | 91.1%
0.205 µM | Cn1c(Cl)c2c(c1Cl)SSc1c(c(Cl)n(C)c1Cl)SS2 | > 489 | > 100 µM | > 100%
> 100 µM | CCn1c(Cl)c2c(c1Cl)SSc1c(c(Cl)n(CC)c1Cl)SS2 | 1 | > 100 µM | > 100%
14.5 µM | CC(C)(C)n1cc2c(c1)SSc1cn(C(C)(C)C)cc1SS2 | > 6.9 | > 100 µM | > 100%
60.7 µM | CCn1c(C)c2c(c1C)SSc1c(c(C)n(CC)c1C)SS2 | 1.6 | > 100 µM | > 100%
3.08 µM | Cc1c2c(c(C)n1Cc1ccccc1)SSc1c(c(C)n(Cc3ccccc3)c1C)SS2 | 18.9 | 58.2 µM | > 100%
